Experimental data: ChEMBL document CHEMBL3046912, “Effectiveness of 1,3-dichloropropene as an alternative to methyl bromide in rotations of tomato (Solanum lycopersicum) and cucumber (Cucumis sativus) in China” (2012)
The source made the active and inactive calls. No cut-off for these calls is given here.

Assays:
Solanum lycopersicum [1] = experiment: Increase in plant height of Solanum lycopersicum (tomato) exposed to 400 kg/ha compound fumigation treatment measured 30 days after compound treatment (reference value: 28.4 cm); format: functional
Solanum lycopersicum [2] = experiment: Increase in plant height of Solanum lycopersicum (tomato) exposed to 400 kg/ha compound fumigation treatment measured 50 days after compound treatment (reference value: 86.2 cm); format: functional
Cucumis sativus [3] = experiment: Increase in plant height of Cucumis sativus (cucumber) exposed to 400 kg/ha compound fumigation treatment measured 30 days after compound treatment (reference value: 85.6 cm); format: functional
Cucumis sativus [4] = experiment: Increase in plant height of Cucumis sativus (cucumber) exposed to 400 kg/ha compound fumigation treatment measured 50 days after compound treatment (reference value: 103.2 cm); format: functional
Capsella bursa-pastoris [5] = experiment: Herbicidal activity against Capsella bursa-pastoris in tomato plants fields exposed to 400 kg/ha compound fumigation treatment assessed as hand weeding time per plot relative to untreated control; format: functional
Capsella bursa-pastoris [6] = experiment: Herbicidal activity against Capsella bursa-pastoris in cucumber plants fields exposed to 400 kg/ha compound fumigation treatment assessed as hand weeding time per plot relative to untreated control; format: functional
Digitaria sanguinalis [7] = experiment: Herbicidal activity against Digitaria sanguinalis (hairy crabgrass) in tomato plants fields exposed to 400 kg/ha compound fumigation treatment assessed as hand weeding time per plot relative to untreated control; format: functional
Arenaria serpyllifolia [8] = experiment: Herbicidal activity against Arenaria serpyllifolia in cucumber plants fields exposed to 400 kg/ha compound fumigation treatment assessed as hand weeding time per plot (reference value: 258.3 hr/ha); format: functional
Digitaria sanguinalis [9] = experiment: Herbicidal activity against Digitaria sanguinalis (hairy crabgrass) in cucumber plants fields exposed to 400 kg/ha compound fumigation treatment assessed as hand weeding time per plot (reference value: 258.3 hr/ha); format: functional
Capsella bursa-pastoris [10] = experiment: Herbicidal activity against Capsella bursa-pastoris in cucumber plants fields exposed to 400 kg/ha compound fumigation treatment assessed as hand weeding time per plot (reference value: 258.3 hr/ha); format: functional
Botrytis cinerea = experiment: Fungicidal activity against Botryotinia fuckeliana-induced withering in tomato plants at 400 kg/ha measured 20 to 60 days post compound treatment; format: functional, organism-based
Meloidogyne incognita [11] = experiment: Nematicidal activity against Meloidogyne incognita (root-knot nematode) in cucumber growing fields exposed to 400 kg/ha compound fumigation treatment assessed as root galling index measured 20 days after compound treatment (reference value: 8.72 root galling index); format: functional
Solanum lycopersicum [12] = experiment: Increase in crop yield in Cucumis sativus (cucumber) plants exposed to 400 kg/ha compound fumigation treatment assessed as marketable yield fruit yield (reference value: 65.3 ton/ha); format: functional
Arenaria serpyllifolia [13] = experiment: Herbicidal activity against Arenaria serpyllifolia in tomato plants fields exposed to 400 kg/ha compound fumigation treatment assessed as hand weeding time per plot (reference value: 243.3 hr/ha); format: functional
Digitaria sanguinalis [14] = experiment: Herbicidal activity against Digitaria sanguinalis (hairy crabgrass) in tomato plants fields exposed to 400 kg/ha compound fumigation treatment assessed as hand weeding time per plot (reference value: 243.3 hr/ha); format: functional
Capsella bursa-pastoris [15] = experiment: Herbicidal activity against Capsella bursa-pastoris in tomato plants fields exposed to 400 kg/ha compound fumigation treatment assessed as hand weeding time per plot (reference value: 243.3 hr/ha); format: functional
Phytophthora melonis = experiment: Fungicidal activity against Phytophthora melonis-induced blight disease in cucumber plants at 400 kg/ha measured 20 to 60 days post compound treatment; format: functional, organism-based
Meloidogyne incognita [16] = experiment: Nematicidal activity against Meloidogyne incognita (root-knot nematode) in tomato growing fields exposed to 400 kg/ha compound fumigation treatment assessed as root galling index measured 20 days after compound treatment (reference value: 8.51 root galling index); format: functional
Solanum lycopersicum [17] = experiment: Increase in crop yield in Solanum lycopersicum (tomato) plants exposed to 400 kg/ha compound fumigation treatment assessed as marketable yield fruit yield (reference value: 51.3 ton/ha); format: functional
Arenaria serpyllifolia [18] = experiment: Herbicidal activity against Arenaria serpyllifolia in cucumber plants fields exposed to 400 kg/ha compound fumigation treatment assessed as hand weeding time per plot relative to untreated control; format: functional
Digitaria sanguinalis [19] = experiment: Herbicidal activity against Digitaria sanguinalis (hairy crabgrass) in cucumber plants fields exposed to 400 kg/ha compound fumigation treatment assessed as hand weeding time per plot relative to untreated control; format: functional
Arenaria serpyllifolia [20] = experiment: Herbicidal activity against Arenaria serpyllifolia in tomato plants fields exposed to 400 kg/ha compound fumigation treatment assessed as hand weeding time per plot relative to untreated control; format: functional
Solanum lycopersicum [21] = experiment: Increase in crop yield in Cucumis sativus (cucumber) plants exposed to 400 kg/ha compound fumigation treatment assessed as medium fruit yield (reference value: 38.6 ton/ha); format: functional
Solanum lycopersicum [22] = experiment: Increase in crop yield in Solanum lycopersicum (tomato) plants exposed to 400 kg/ha compound fumigation treatment assessed as medium fruit yield (reference value: 32.3 ton/ha); format: functional
Solanum lycopersicum [23] = experiment: Increase in crop yield in Cucumis sativus (cucumber) plants exposed to 400 kg/ha compound fumigation treatment assessed as large fruit yield (reference value: 19.5 ton/ha); format: functional
Solanum lycopersicum [24] = experiment: Increase in crop yield in Solanum lycopersicum (tomato) plants exposed to 400 kg/ha compound fumigation treatment assessed as large fruit yield (reference value: 15.2 ton/ha); format: functional
Solanum lycopersicum [25] = experiment: Increase in crop yield in Cucumis sativus (cucumber) plants exposed to 400 kg/ha compound fumigation treatment assessed as extra-large fruit yield (reference value: 7.2 ton/ha); format: functional
Solanum lycopersicum [26] = experiment: Increase in crop yield in Solanum lycopersicum (tomato) plants exposed to 400 kg/ha compound fumigation treatment assessed as extra-large fruit yield (reference value: 3.8 ton/ha); format: functional

CBr [BROMOMETHANE]
Activity (Solanum lycopersicum [1]): 43.5 cm | Activity (Solanum lycopersicum [2]): 118.7 cm | Activity (Cucumis sativus [3]): 108.6 cm | Activity (Cucumis sativus [4]): 132.6 cm | Activity (Capsella bursa-pastoris [5]): 45% | Activity (Capsella bursa-pastoris [6]): 45% | Activity (Digitaria sanguinalis [7]): 45% | Time (Arenaria serpyllifolia [8]): 41.9 hr/ha | Time (Digitaria sanguinalis [9]): 41.9 hr/ha | Time (Capsella bursa-pastoris [10]): 41.9 hr/ha | Activity (Botrytis cinerea): Active | Root_galling_index (Meloidogyne incognita [11]): 3.24 | Crop_yield (Solanum lycopersicum [12]): 101.9 tons/ha | Time (Arenaria serpyllifolia [13]): 35.2 hr/ha | Time (Digitaria sanguinalis [14]): 35.2 hr/ha | Time (Capsella bursa-pastoris [15]): 35.2 hr/ha | Activity (Phytophthora melonis): Active | Root_galling_index (Meloidogyne incognita [16]): 3.54 | Crop_yield (Solanum lycopersicum [17]): 76.6 tons/ha | Activity (Arenaria serpyllifolia [18]): 45% | Activity (Digitaria sanguinalis [19]): 45% | Activity (Arenaria serpyllifolia [20]): 45% | Crop_yield (Solanum lycopersicum [21]): 55.3 tons/ha | Crop_yield (Solanum lycopersicum [22]): 46.6 tons/ha | Crop_yield (Solanum lycopersicum [23]): 32.3 tons/ha | Crop_yield (Solanum lycopersicum [24]): 21.7 tons/ha | Crop_yield (Solanum lycopersicum [25]): 14.3 tons/ha | Crop_yield (Solanum lycopersicum [26]): 8.3 tons/ha
